How the values were obtained:
hPPARalpha = molecular target: T1, hPPARalpha (Homo sapiens, UniProt Q07869); assay: PPAR activation: Gal4-hPPARα chimera luciferase transactivation in COS-7 cells, Method 1; format: cell-based; conditions: COS-7, 24 h; for Emax: maximum percentage response relative to the reference phenofibric acid, read-out: hPPARalpha % max
T1 construct: expressed in transfected cells; host or cells: COS-7 (monkey kidney fibroblasts)
T1 sequence (Q07869 239-466 limits assumed): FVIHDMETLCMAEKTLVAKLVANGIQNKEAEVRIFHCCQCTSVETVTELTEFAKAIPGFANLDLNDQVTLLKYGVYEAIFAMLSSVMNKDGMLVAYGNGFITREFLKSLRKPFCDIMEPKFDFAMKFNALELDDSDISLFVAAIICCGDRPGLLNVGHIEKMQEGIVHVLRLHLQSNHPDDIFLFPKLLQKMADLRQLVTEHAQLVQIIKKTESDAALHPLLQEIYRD
Summary of the method: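 COS-7 cells transiently transfected with Gal4 DBD–human PPAR LBD (DEF domain) chimeras plus Gal4(RE)_TkpGL3 luciferase reporter (1/10 ratio). Compounds applied 24 h at 37 °C in serum-free medium at doses between 10^−5 and […]; luciferase read after lysis, EC50 derived.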

[1] = tested on: target genes of PPARδ in murine myocytes (C2C12); assay: Expression of target genes of PPARδ (PDK4, CPT1b, UCP2, UCP3) in murine myocytes, quantitative RT-PCR; format: cell-based; conditions: murine myocytes in vitro
Text: It is established that regulation of the expression of these genes is directly controlled by PPARδ in this cell type. The more the expression of the genes is increased, the greater the stimulating action of the compound according to the invention on metabolism in the muscle cells.
Cells from the murine cell line C2C12 (obtained from ECACC) are cultivated in DMEM medium (Gibco; 41965-039) with addition of 1% L-glutamine (Gibco; 25030), 1% of penicillin/streptomycin (VWR; BWSTL0022/100) and 10% decomplemented fetal calf serum (FCS. Gibco; 10270-106).
The cells are seeded on 24-well plates at a density of 50·10^3 cells/well. At confluence, the medium is replaced with a differentiating medium (basal medium with addition of 2% of horse serum (Gibco; 26050-088)), then incubated at 37° C. and 5% CO2 for 4 days in order to differentiate them to myocytes.
After 5 days of differentiation, the cells are put in a deprivation medium (basal medium without serum) for 6 hours. The cells are then treated with the compounds according to the invention in the deprivation medium. Compounds 2, 4, 7, 11, 39, 40, 46, 49 and 72 were in dose effect, corresponding to 1×, 10× and 100× their EC50 PPARδ. The compounds according to the invention were dissolved in dimethylsulfoxide (DMSO, Sigma; D5879). The cells were treated for 24 h at 37° C., 5% CO2. The effect of the compounds according to the invention was compared with the effect of DMSO alone.
After treatment, the total RNA is extracted from the cells using the NucleoSpine® 96 RNA kit (Macherey Nagel, Hoerdt, France) following the manufacturer's instructions.
1 μg of total RNA (quantified based on the UV spectrophotometer reading) was then reverse-transcribed to complementary DNA by reaction for 1 hour at 37° C. in a total volume of 30 μl containing buffer 1× (Invitrogen), 1.5 mM of DTT, 0.18 mM of dNTPs (Promega), 200 ng of pdN6 (Amersham), 30 U of RNase inhibitor (Promega) and 1 μl of MMLV-RT (Invitrogen).
The quantitative PCR experiments were carried out using the MyiQ Single-Color Real-Time PCR Detection System (Biorad, Marnes-la-Coquette, France) and were performed using the iQ SYBR Green Supermix kit following the supplier's recommendations, in 96-well plates, on 5 μl of diluted reverse-transcription reaction mixtures with a hybridization temperature of 60° C. Primer pairs specific to the PDK4, CPT1b, UCP2 and UCP3 genes under investigation were used:
The amount of fluorescence emitted is directly proportional to the amount of complementary DNA present at the start of the reaction and amplified during PCR. For each target investigated, a range is produced by successive dilutions of a pool constituted of a few microliters of various reverse-transcription reaction mixtures. The relative expression levels of each target are thus determined using the efficacy curves obtained with the points in the range.
The levels of expression of the genes of interest were then normalized relative to the level of expression of the reference gene 36B4 (whose specific primers are: sense primer: 5′-[…]-3′ (SEQ ID No. 19) and antisense primer: 5′-[…]-3′ (SEQ ID No. 20)). The induction factor, i.e. the ratio of the relative signal (induced by the compound according to the invention) to the mean of the relative values of the control group, was then calculated. The higher this factor, the greater the activating character of the compounds according to the invention with respect to gene expression. The final result is represented as the mean of the induction values in each experimental group.

For `CC(C)(Oc1ccc(CCC(=O)c2ccc(-c3ccc(C(F)(F)F)cc3)s2)c(Cl)c1Cl)C(=O)O` [Compound 2, 2-(2,3-dichloro-4-(3-oxo-3-(5-(4-(trifluoromethyl)phenyl)thien-2-yl)propyl)phenoxy)-2-methylpropanoic acid], the EC50 (hPPARalpha) was 53 nM, the Emax (hPPARalpha) was 43% and the “expression of genes involved in carbohydrate and lipid metabolism and in thermoregulation” value (“expression of genes involved” below) [1] was “stimulating effects”.

For `CC(C)(Oc1ccc(CCC(O)c2ccc(-c3ccc(C(F)(F)F)cc3)s2)c(Cl)c1Cl)C(=O)O` (stereo not shown) [Compound 4, 2-(2,3-dichloro-4-(3-hydroxy-3-(5-(4-(trifluoromethyl)phenyl)thien-2-yl)propyl)phenoxy)-2-methylpropanoic acid], the EC50 (hPPARalpha) was 125 nM, the Emax (hPPARalpha) was 50% and the “expression of genes involved” value [1] was “stimulating effects”.

In the case of `CC(C)(Oc1ccc(CCC(OCc2ccccc2)c2ccc(-c3ccc(C(F)(F)F)cc3)s2)c(Cl)c1Cl)C(=O)O` (stereo not shown) [Compound 7, 2-(4-(3-(benzyloxy)-3-(5-(4-(trifluoromethyl)phenyl)thien-2-yl)propyl)-2,3-dichlorophenoxy)-2-methylpropanoic acid], the “expression of genes involved” value [1] is reported as “stimulating effects”.

With `CC(C)(Oc1ccc(CCC(=O)c2cc(-c3ccc(C(F)(F)F)cc3)cs2)c(Cl)c1Cl)C(=O)O` [Compound 11, 2-(2,3-dichloro-4-(3-oxo-3-(4-(4-(trifluoromethyl)phenyl)thien-2-yl)propyl)phenoxy)-2-methylpropanoic acid] the EC50 (hPPARalpha) was 288 nM, the Emax (hPPARalpha) was 39% and the “expression of genes involved” value [1] was “stimulating effects”.
